Data taken from ChEMBL document CHEMBL5357084, “Structure-Guided Discovery of Diverse Cytotoxic Dimeric Xanthones/Chromanones from Penicillium chrysogenum C-7-2-1 and Their Interconversion Properties” (J Nat Prod, 2024).

Key:
[1] = system: A-375; assay: Cytotoxicity against human A-375 cells […] at 50 uM measured after 48 hrs by MTT assay relative to control; format: functional
[2] = system: NCI-H1299; assay: Cytotoxicity against human NCI-H1299 cells assessed as inhibition of cell growth at 50 uM measured after 48 hrs by MTT assay relative to control; format: functional; design: scale not given: the % may be the effect or the level left
[3] = system: BEAS-2B; assay: Cytotoxicity against human BEAS-2B cells assessed as inhibition of cell growth at 50 uM measured after 48 hrs by MTT assay relative to control; format: functional
[4] = system: SW-620; assay: Cytotoxicity against human SW620 cells assessed as inhibition of cell growth at 50 uM measured after 48 hrs by MTT assay relative to control; format: functional
[5] = system: NCI-H23; assay: Cytotoxicity against human NCI-H23 cells […] at 50 uM measured after 48 hrs by MTT assay relative to control; format: functional
[6] = system: Caco-2; assay: Cytotoxicity against human Caco-2 cells assessed as inhibition of cell growth at 50 uM measured after 48 hrs by MTT assay relative to control; format: functional; design: scale not given: the % may be the effect or the level left
[7] = system: SW-620; assay: Cytotoxicity against human SW620 cells assessed as inhibition of cell growth measured after 48 hrs by MTT assay; format: functional, cell-based; settings: Homo sapiens, SW-620, 48 h; read-out: IC50
[8] = system: NCI-H1299; assay: Cytotoxicity against human NCI-H1299 cells assessed as inhibition of cell growth measured after 48 hrs by MTT assay; format: functional, cell-based; settings: NCI-H1299, 48 h
[9] = system: A-375; assay: Cytotoxicity against human A-375 cells assessed as inhibition of cell growth measured after 48 hrs by MTT assay; format: functional, cell-based; settings: A-375, 48 h
[10] = system: Caco-2; assay: Cytotoxicity against human Caco-2 cells assessed as inhibition of cell growth measured after 48 hrs by MTT assay; format: functional, cell-based; settings: Caco-2, 48 h
[11] = system: NCI-H23; assay: Cytotoxicity against human NCI-H23 cells assessed as inhibition of cell growth measured after 48 hrs by MTT assay; format: functional, cell-based; settings: NCI-H23, 48 h
[12] = system: BEAS-2B; assay: Cytotoxicity against human BEAS-2B cells assessed as inhibition of cell growth measured after 48 hrs by MTT assay; format: functional, cell-based; settings: Homo sapiens, BEAS-2B, 48 h; read-out: IC50

For COC(=O)C[C@H](C)[C@@H](O)[C@]1(C(=O)OC)CC(=O)c2c(O)ccc(-c3ccc4c(c3O)C(=O)C[C@](C(=O)OC)([C@@]3(O)OC(=O)C[C@@H]3C)O4)c2O1, the Activity [1] was 102.5%, the Activity [2] was 70.4% and the “Cell growth relative to control” value [3] was 171%. The “Cell growth relative to control” value [4] was 72.9%, the Activity [5] was 86.7% and the Activity [6] was 55.9%.

In the case of COC(=O)[C@@]1([C@H](O)[C@@H](C)CC(=O)O)CC(=O)c2c(ccc(-c3ccc(O)c4c3O[C@](C(=O)OC)([C@H](O)[C@@H](C)CC(=O)O)CC4=O)c2O)O1, the Activity [1] is reported as 91.7%, the Activity [2] is reported as 78.6% and the “Cell growth relative to control” value [3] is reported as 110%. The “Cell growth relative to control” value [4] was 99.3%, the Activity [5] was 73.1% and the Activity [6] was 94.4%.

COC(=O)C[C@H](C)[C@@H](O)[C@]1(C(=O)OC)CC(=O)c2c(ccc(-c3ccc4c(c3O)C(=O)C[C@](C(=O)OC)([C@@]3(O)OC(=O)C[C@@H]3C)O4)c2O)O1 was tested, and the Activity [1] was 94.4%, the Activity [2] was 87.9% and the “Cell growth relative to control” value [3] was 171.6%. The “Cell growth relative to control” value [4] was 115.5%, the Activity [5] was 73.6% and the Activity [6] was 92.1%.

For COC(=O)[C@@]12Oc3c(c(O)cc(C)c3-c3ccc4c(c3O)C(=O)C3=C(O)C[C@H](C)[C@H](O)[C@]3(C(=O)OC)O4)C(=O)C1=C(O)CC[C@H]2O, the Activity [1] was 79.9%, the Activity [2] was 81.1% and the “Cell growth relative to control” value [3] was 99.5%. For the same compound, the “Cell growth relative to control” value [4] was 106.3%, the Activity [5] was 82.6% and the Activity [6] was 85%.

COC(=O)[C@@]1([C@H](O)[C@@H](C)CC(=O)O)CC(=O)c2c(ccc(-c3ccc4c(c3O)C(=O)C[C@@](C(=O)OC)([C@H](O)[C@@H](C)CC(=O)O)O4)c2O)O1 was tested, and the Activity [1] was 103.2%, the Activity [2] was 64.9% and the “Cell growth relative to control” value [3] was 105.5%. For the same compound, the “Cell growth relative to control” value [4] was 98.7%, the Activity [5] was 83.6% and the Activity [6] was 94.4%.

In the case of COC(=O)[C@@]12Oc3ccc(-c4ccc5c(c4O)C(=O)C[C@](C(=O)OC)([C@H]4OC(=O)C[C@@H]4C)O5)c(O)c3C(=O)C1=C(O)C[C@H](C)[C@H]2O, the Activity [1] is reported as 74.7%, the Activity [2] is reported as 78.4% and the “Cell growth relative to control” value [3] is reported as 109.9%. The “Cell growth relative to control” value [4] was 90.4%, the Activity [5] was 87.6% and the Activity [6] was 82.5%.

For CNC(=O)c1cc(Oc2ccc(NC(=O)Nc3ccc(Cl)c(C(F)(F)F)c3)cc2)ccn1 [SORAFENIB], the IC50 [7] was 2300 nM, the IC50 [8] was 3400 nM and the IC50 [9] was 1800 nM. The IC50 [10] was 1300 nM, the IC50 [11] was 2400 nM and the IC50 [12] was 31600 nM.
